This data set in a line: in vitro. The conditions noted are these: rat, gh3-tre-luc cells.

Counter-ions that a name gives are not always drawn. Some results are limits rather than exact numbers.

`CC1=NN(c2cc(S(=O)(=O)O)ccc2Cl)C(=O)C1N=Nc1ccccc1` (stereo not shown) [C.I. Acid Yellow 34, monosodium salt]: the CC50 at 24 h (AC50 (uM) modified / 1000) is 92.1 µM.
Where the note is “AC50 (uM) modified / 1000”, `Cc1ccccc1[N+](=O)[O-]` [2-Nitrotoluene] had a CC50 at 24 h above 90 µM.
The same measure, in the same setting: the same measure for `CCCCC(C=O)CC` (stereo not shown) [2-Ethylhexanal]: above 90 µM; for `CCNCC` [Diethylamine]: above 100 µM; for `COc1ccc2cc1Oc1cc3c(cc1OC)CC[N+](C)(C)[C@H]3Cc1ccc(cc1)Oc1c(OC)c(OC)cc3c1[C@@H](C2)[N+](C)(C)CC3` [Metocurine iodide]: above 50 µM.
Still for that read-out and setting: the value for `CCCCCCCCCCCCc1ccccc1` [Dodecylbenzene] was above 90 µM.
Still for that read-out and setting: the same measure for `COC(=O)c1ccccc1CS(=O)(=O)NC(=O)Nc1nc(OC)cc(OC)n1` [Bensulfuron-methyl]: above 90 µM; for `CN1CCc2cc3c(cc2C1O)OCO3` (stereo not shown) [Hydrastinine hydrochloride]: above 90 µM.
As to `COC(=O)c1ccc(C)cc1` [Methyl 4-methylbenzoate], the CC50 at 24 h (AC50 (uM) modified / 1000) was above 90 µM.
Still for that read-out and setting: the value for `CC(C)C(=O)OCCc1ccccc1` [2-Phenylethyl 2-methylpropanoate] was above 90 µM.
As to `CCCN(CC1CC1)c1c([N+](=O)[O-])cc(C(F)(F)F)cc1[N+](=O)[O-]` [Profluralin], for the setting “AC50 (uM) modified / 1000, Tox21_110001=Tox21_301566, viability, 1 nM T3 present, 24 h”, the CC50 at 24 h was 76.2 µM.
Under “AC50 (uM) modified / 1000”, `Nc1ccn([C@H]2CC[C@@H](CO)O2)c(=O)n1` [2',3'-Dideoxycytidine] returned a cytotoxic concentration (CC50) at 24 h above 50 µM.
In turn, `Fc1ccc(C(c2ccc(F)cc2)N2CCN(C/C=C/c3ccccc3)CC2)cc1` [Flunarizine] displayed a half-maximal cytotoxic concentration (CC50) at 24 h (AC50 (uM) modified / 1000) of 12.3 µM.
Still for that read-out and setting: the same measure for `Cc1ccc(Nc2nccc(N(C)c3ccc4c(C)n(C)nc4c3)n2)cc1S(N)(=O)=O` [Pazopanib]: above 50 µM.
In the case of `CCCCCCCCCCCCCC(=O)OCC` [Ethyl tetradecanoate], for the setting “AC50 (uM) modified / 1000”, the CC50 at 24 h was above 90 µM.
In the case of `C#C[C@]1(O)CC[C@H]2[C@@H]3CCC4=C(CCC(=O)C4)[C@H]3CC[C@@]21C` [Norethynodrel], where the note is “AC50 (uM) modified / 1000”, the 50% cytotoxic concentration (CC50) at 24 h is above 20 µM.
Same read-out and setting: the value for `O=C(O)CCCc1c[nH]c2ccccc12` [Indole-3-butyric acid] was above 90 µM; that for `CCCCCCCCC(=O)OCC` [Ethyl nonanoate] was above 90 µM.
Turning to `CCCCC1CCCCC(=O)O1` (stereo not shown) [epsilon-Decalactone], under “AC50 (uM) modified / 1000”, the CC50 at 24 h is above 90 µM.
Compound `COc1ccc(-c2noc(CC(=O)O)c2-c2ccc(OC)cc2)cc1` [Mofezolac] registered a CC50 at 24 h (AC50 (uM) modified / 1000) above 50 µM.
The same measure, in the same setting: the value for `FC(F)(F)c1ccc(Cl)c(Cl)c1` [1,2-Dichloro-4-(trifluoromethyl)benzene] was above 90 µM; that for `CCCc1ccccc1O` [2-Propylphenol] was above 90 µM; that for `CCCCCCCCCCCCCCNCCO` [Myralact] was above 50 µM.
Consider `CCOc1ccc2nc(N)sc2c1` [2-Amino-6-ethoxybenzothiazole], for which the CC50 at 24 h (AC50 (uM) modified / 1000) was above 90 µM.
Under “AC50 (uM) modified / 1000, Tox21_110001=Tox21_301196, viability, 1 nM T3 present, 24 h”, `N#CCC#N` [Propanedinitrile] registered a CC50 at 24 h of 40.5 µM.
For the setting “AC50 (uM) modified / 1000”, `CC(C)CC(C)N(c1ccccc1)c1ccc(N)cc1` (stereo not shown) [N-(4-Methylpentan-2-yl)-N-phenylbenzene-1,4-diamine] yielded a cytotoxic concentration (CC50) at 24 h of 28.5 µM.
The same measure, in the same setting: the value for `C[C@]12CC[C@@H]3c4ccc(OC(=O)c5ccccc5)cc4CC[C@H]3[C@@H]1CC[C@@H]2O` [Estradiol benzoate] was above 50 µM; that for `CC1(C)O[C@@H]2C[C@H]3[C@@H]4CCC5=CC(=O)C=C[C@]5(C)[C@H]4[C@@H](O)C[C@]3(C)[C@]2(C(=O)CO)O1` [Desonide] was above 50 µM.
In the case of `Cc1c[nH]cn1` [4-Methylimidazole], the cytotoxic concentration (CC50) at 24 h (AC50 (uM) modified / 1000, Tox21_110001=Tox21_201048, viability, 1 nM T3 present, 24 h) was above 90 µM.
The compound `CCCc1cc(=O)[nH]c(=S)[nH]1` [6-Propyl-2-thiouracil] yielded a CC50 at 24 h (AC50 (uM) modified / 1000) above 90 µM.
On the same count and under the same terms, the same measure for `CCN(CCC#N)c1ccccc1` [3-[Ethyl(phenyl)amino]propanenitrile]: above 90 µM; for `CN1CCN(C(c2ccccc2)c2ccc(Cl)cc2)CC1` (stereo not shown) [Chlorcyclizine hydrochloride]: 4.39 µM; for `COc1ccccc1C=CC=O` [2-Methoxycinnamaldehyde]: 77.5 µM.
The compound `C[N+]1(C)CCC(=C(c2ccccc2)c2ccccc2)CC1` [Diphemanil methylsulfate] had a CC50 at 24 h (AC50 (uM) modified / 1000) above 20 µM.
The same measure, in the same setting: the same measure for `C[C@@H]1CC(=O)NN=C1c1ccc(NN=C(C#N)C#N)cc1` [Levosimendan]: 14.8 µM.
Regarding `CCC1CCC(=O)O1` (stereo not shown) [gamma-Caprolactone], the CC50 at 24 h (AC50 (uM) modified / 1000, Tox21_110001=Tox21_300875, viability, 1 nM T3 present, 24 h) is above 100 µM.
Turning to `Nc1c(CC(=O)O)cccc1C(=O)c1ccccc1` [Amfenac sodium], under “AC50 (uM) modified / 1000”, the 50% cytotoxic concentration (CC50) at 24 h was above 50 µM.
Still for that read-out and setting: the same measure for `CC(=O)c1ccc(S(=O)(=O)NC(=O)NC2CCCCC2)cc1` [Acetohexamide]: above 90 µM.
The compound `CCOCCn1c(N2CCCN(C)CC2)nc2ccccc21` [Emedastine difumarate] gave a CC50 at 24 h (AC50 (uM) modified / 1000) above 50 µM.
`CC(=O)OC(C)C` [Isopropyl acetate] showed a CC50 at 24 h (AC50 (uM) modified / 1000) above 90 µM.
As to `C[C@H]1CCCC(=O)CCC/C=C/c2cc(O)cc(O)c2C(=O)O1` [Zearalenone], the CC50 at 24 h runs as follows: (AC50 (uM) modified / 1000, Tox21_110001=Tox21_201153, viability, 1 nM T3 present, 24 h) 41.1 µM; (AC50 (uM) modified / 1000, Tox21_110001=Tox21_303510, viability, 1 nM T3 present, 24 h) 23.5 µM.
As to `NC(=O)c1cc[n+](CC2=C(C(=O)O)N3C(=O)[C@@H](NC(=O)[C@@H](c4ccccc4)S(=O)(=O)[O-])[C@H]3SC2)cc1` [Cefsulodin sodium], the CC50 at 24 h (AC50 (uM) modified / 1000) is above 20 µM.
Same read-out and setting: the value for `Cc1c(C(=O)O)c(O)cc2c1C(=O)c1c(O)c(C3OC(CO)C(O)C(O)C3O)c(O)c(O)c1C2=O` (stereo not shown) [Cochineal] was 29.1 µM; that for `CCN(Cc1c(F)cccc1Cl)c1c([N+](=O)[O-])cc(C(F)(F)F)cc1[N+](=O)[O-]` [Flumetralin] was above 90 µM; that for `CCCCCCCC/C=C\CCCCCCCC(=O)N(CCO)CCO` [(9Z)-N,N-Bis(2-hydroxyethyl)octadec-9-enamide] was 43.9 µM.
As to `O=C1c2c(O)cccc2Cc2cccc(O)c21` [Anthralin], for the setting “AC50 (uM) modified / 1000”, the CC50 at 24 h is above 90 µM.
Same read-out and setting: the value for `NC(N)=O` [Urea] was above 100 µM; that for `COc1ccc(N=Nc2cc(C)c(N=Nc3ccc(S(=O)(=O)O)cc3)cc2OC)cc1` [Acid Orange 156] was 64.4 µM.
On the same count and under the same terms, the same measure for `CCNC(=O)N1CCN(CCCC(c2ccc(F)cc2)c2ccc(F)cc2)CC1` [Amperozide hydrochloride]: 19.7 µM.
Same read-out and setting: the value for `C/C=C/c1ccc(OCC)c(O)c1` [trans-2-Ethoxy-5-(1-propenyl)phenol] was above 90 µM.
The compound `OCCCCCCCl` [6-Chlorohexan-1-ol] displayed a CC50 at 24 h (AC50 (uM) modified / 1000) above 100 µM.
Same read-out and setting: the value for `COc1cc(C(=S)N2CCOCC2)ccc1O` [Vanitiolide] was above 50 µM.
On the same count and under the same terms, the value for `CC(C)NC[C@@H](O)COc1cccc2ccccc12` [Dexpropranolol] was 27.7 µM; that for `CN1CCCC(CN2c3ccccc3Sc3ccccc32)C1` (stereo not shown) [Pecazine] was 16.4 µM.
Still for that read-out and setting: the value for `COCCCN` [3-Methoxypropylamine] was above 90 µM; that for `NC(=O)OCC(COC(N)=O)c1ccccc1` [Felbamate] was above 90 µM.
In turn, `CCCSP(=S)(OCC)Oc1ccc(Cl)cc1Cl` (stereo not shown) [Prothiofos] yielded a CC50 at 24 h (AC50 (uM) modified / 1000, Tox21_110001=Tox21_301219, viability, 1 nM T3 present, 24 h) above 90 µM.
`Nc1ncnc2c1ncn2[C@@H]1O[C@H](COP(=O)(O)OP(=O)(O)OP(=O)(O)O)[C@@H](O)[C@H]1O` [Adenosine triphosphate]: the cytotoxic concentration (CC50) at 24 h (AC50 (uM) modified / 1000) is above 50 µM.
On the same count and under the same terms, the value for `COc1nc(N)nc2c1ncn2[C@@H]1O[C@H](CO)[C@@H](O)[C@@H]1O` [Nelarabine] was above 50 µM; that for `C#CCN1CC(=O)N(COC(=O)C2C(C=C(C)C)C2(C)C)C1=O` (stereo not shown) [Imiprothrin] was above 50 µM.
Still for that read-out and setting: the value for `CCCCOCCOCCOCCCC` [Diethylene glycol dibutyl ether] was above 90 µM; that for `CO/N=C(\C(=O)N[C@@H]1C(=O)N2C(C(=O)OCOC(=O)C(C)(C)C)=C(/C=C\c3scnc3C)CS[C@H]12)c1csc(N)n1` [Cefditorin pivoxil] was above 50 µM.
The same measure, in the same setting: the same measure for `CCO[Si](CCC#N)(OCC)OCC` [3-(Triethoxysilyl)propionitrile]: above 90 µM.
In the case of `COc1cccc(OC)c1C(=O)N[C@@H]1C(=O)N2[C@@H]1SC(C)(C)[C@@H]2C(=O)O` [Methicillin sodium hydrate], where the note is “AC50 (uM) modified / 1000”, the CC50 at 24 h was above 50 µM.
Under “AC50 (uM) modified / 1000”, `Nc1nc(CC(=O)O)cs1` [2-Amino-4-thiazoleacetic acid] had a CC50 at 24 h above 90 µM.
On the same count and under the same terms, the same measure for `O=C1c2cccc(O)c2C(=O)c2c(O)cccc21` [Danthron]: above 90 µM; for `C[C@@H](O[C@H]1OCCN(Cc2n[nH]c(=O)[nH]2)[C@H]1c1ccc(F)cc1)c1cc(C(F)(F)F)cc(C(F)(F)F)c1` [Aprepitant]: 11 µM.
As for `CC[C@@H](CO)NC(=O)[C@@H]1C=C2c3cccc4[nH]cc(c34)C[C@H]2N(C)C1` [Methergine], under “AC50 (uM) modified / 1000, Tox21_110001=Tox21_110809, viability, 1 nM T3 present, 24 h”, the CC50 at 24 h was above 50 µM.
`CCN(CC)CCNc1ccc(CNC=O)c2sc3ccc(OC)cc3c(=O)c12` [SR271425]: the CC50 at 24 h (AC50 (uM) modified / 1000) was found to be 11.7 µM.
Still for that read-out and setting: the same measure for `Cc1cccc(C)c1OCC(=O)N[C@@H](Cc1ccccc1)[C@@H](O)C[C@H](Cc1ccccc1)NC(=O)[C@H](C(C)C)N1CCCNC1=O` [Lopinavir]: 24.6 µM; for `C/C=C(C)/C=C/C=C(C)C` [2,6-Dimethyl-2,4,6-octatriene]: above 90 µM; for `Nc1cc(Cl)cc(S(=O)(=O)O)c1O` [6-Amino-4-chloro-1-phenol-2-sulfonic acid]: above 90 µM.

For orientation: CC50 means the concentration giving 50% cytotoxicity. A low value points to harm at low concentration.
